Experimental data from US20100298141A1, “SUBSTITUTED PYRIDINE N-OXIDE HERBICIDES” (E. I. DU PONT DE NEMOURS AND COMPANY, priority 2007, published 2010).

Tests used:
[1] = test system: morningglory; experiment: Test A pre-/postemergence greenhouse test; type: in vivo, Ipomoea spp.; settings: for Morningglory plant response rating: 0 to 100 scale; for Plant response rating, Morningglory: 0 to 100 scale where 0 is no effect and 100 is complete control
How it was run: (§1)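 Greenhouse herbicide screen, pre- and postemergence in parallel. Soil: loam plus sand. Formulation: non-phytotoxic solvent mix with surfactant. Postemergence stage: one to two leaves, 2–10 cm height. Evaluation: visual injury, compared with untreated controls, about 10 days after treatment.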

[2] = test system: bermudagrass; experiment: Test C pre-/postemergence test; type: in vivo, Cynodon dactylon
How it was run: (§2)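 Compounds in a non-phytotoxic solvent with surfactant applied preemergence to seeded pots and, at the same time, postemergence to plants 2–18 cm tall (1- to 4-leaf stage). Paddy tests: pots flooded to 3 cm, compound applied into the water, depth held throughout.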

[3] = test system: kochia; experiment: Test C pre-/postemergence test; type: in vivo, Kochia scoparia
How it was run: as §2

[4] = test system: redroot pigweed; experiment: Test A pre-/postemergence greenhouse test; type: in vivo, Amaranthus retroflexus; settings: for Pigweed plant response rating: 0 to 100 scale; for Plant response rating, Pigweed: 0 to 100 scale where 0 is no effect and 100 is complete control
How it was run: as §1

[5] = test system: yellow nutsedge; experiment: Test C pre-/postemergence test; type: in vivo, Cyperus esculentus
How it was run: as §2

[6] = test system: green foxtail; experiment: Test C pre-/postemergence test; type: in vivo, Setaria viridis
How it was run: as §2

[7] = test system: soybean; experiment: Test C pre-/postemergence test; type: in vivo, Glycine max
How it was run: as §2

[8] = test system: lambsquarters; experiment: Test C pre-/postemergence test; type: in vivo, Chenopodium album
How it was run: as §2

[9] = test system: blackgrass; experiment: Test C pre-/postemergence test; type: in vivo, Alopecurus myosuroides
How it was run: as §2

[10] = test system: wild oat; experiment: Test C pre-/postemergence test; type: in vivo, Avena fatua
How it was run: as §2

[11] = test system: rice; experiment: Test C flooded paddy test; type: in vivo, Oryza sativa; settings: Flood
How it was run: (§3)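 Ratings were visual and made relative to untreated controls after 13 to 15 greenhouse days.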

[12] = test system: cocklebur; experiment: Test C pre-/postemergence test; type: in vivo, Xanthium strumarium
How it was run: as §2

[13] = test system: duck salad; experiment: Test C flooded paddy test; type: in vivo, Heteranthera limosa; settings: Flood
How it was run: as §3

[14] = test system: woolly cupgrass; experiment: Test C pre-/postemergence test; type: in vivo, Eriochloa villosa
How it was run: as §2

[15] = test system: downy brome; experiment: Test C pre-/postemergence test; type: in vivo, Bromus tectorum
How it was run: as §2

[16] = Postemergence, 125 g ai/ha, 0 is no effect, 100 is complete control
[17] = Postemergence, 500 g ai/ha, 0 is no effect, 100 is complete control
[18] = Preemergence, 125 g ai/ha, 0 no effect, 100 complete control
[19] = Postemergence, 62 g ai/ha, scale 0 to 100, 0 no effect, 100 complete control
[20] = Postemergence, 125 g ai/ha, scale 0 to 100, 0 no effect, 100 complete control
[21] = Postemergence, 250 g ai/ha, scale 0 to 100, 0 no effect, 100 complete control
[22] = 31 g ai/ha, scale 0 to 100 (0 no effect, 100 complete control)
[23] = 62 g ai/ha, scale 0 to 100, 0 no effect, 100 complete control, 13 to 15 days
[24] = 125 g ai/ha, scale 0 to 100, 0 no effect, 100 complete control, 13 to 15 days
[25] = 250 g ai/ha, scale 0 to 100, 0 no effect, 100 complete control, 13 to 15 days
[26] = 125 g ai/ha, preemergence, scale 0 (no effect) to 100 (complete control)
[27] = Preemergence, 31 g ai/ha, scale 0 to 100 (0 no effect, 100 complete control)
[28] = preemergence, 250 g ai/ha, scale 0 (no effect) to 100 (complete control)
[29] = 62 g ai/ha, Preemergence, scale 0 to 100
[30] = 62 g ai/ha, scale 0 to 100 (0 no effect, 100 complete control)

`CC(c1c(C(F)(F)F)nn(C)c1Cl)S(=O)(=O)c1ccc(Cl)c[n+]1[O-]` (racemic) [Compound 40] was tested, and the “Morningglory plant response rating” value [1, 16] was 0, the “Morningglory plant response rating” value [1, 17] was 30 and the “Morningglory plant response rating” value [1, 18] was 0. For the same compound, the “Plant response rating, Morningglory” value ([1]; Preemergence, 500 g ai/ha) was 80, the “Plant response rating (0 to 100), Bermudagrass” value ([2]; Postemergence, 31 g ai/ha) was 0 and the “Plant response rating, Bermudagrass” value [2, 19] was 0. For the same compound, the “Plant response rating, Bermudagrass” value [2, 20] was 10, the “Plant response rating, Bermudagrass” value [2, 21] was 30 and the “Plant response rating (0 to 100), Kochia” value ([3]; Postemergence, 31 g ai/ha) was 0. The “Plant response rating, Kochia” value [3, 19] was 0, the “Plant response rating, Kochia” value [3, 20] was 0 and the “Plant response rating, Kochia” value [3, 21] was 0. The “Pigweed plant response rating” value [4, 16] was 30, the “Pigweed plant response rating” value [4, 17] was 60 and the “Pigweed plant response rating” value [4, 18] was 60. For the same compound, the “Plant response rating, Pigweed” value ([4]; Preemergence, 500 g ai/ha) was 100, the “Plant response rating (0 to 100), Nutsedge, Yellow” value ([5]; Postemergence, 31 g ai/ha) was 0 and the “Plant response rating, Nutsedge, Yellow” value [5, 19] was 0. The “Plant response rating, Nutsedge, Yellow” value [5, 20] was 0, the “Plant response rating, Nutsedge, Yellow” value [5, 21] was 0 and the “Plant response rating (0 to 100), Foxtail, Green” value ([6]; Postemergence, 31 g ai/ha) was 0. The “Plant response rating, Foxtail, Green” value [6, 19] was 0, the “Plant response rating, Foxtail, Green” value [6, 20] was 0 and the “Plant response rating, Foxtail, Green” value [6, 21] was 5. For the same compound, the “Plant response rating (0 to 100), Soybean” value ([7]; Postemergence, 31 g ai/ha) was 0, the “Plant response rating (0 to 100), Soybean” value ([7]; Postemergence, 62 g ai/ha) was 0 and the “Plant response rating, Soybean” value [7, 20] was 0. For the same compound, the “Plant response rating, Soybean” value [7, 21] was 0, the “Plant response rating (0 to 100), Lambsquarters” value ([8]; Postemergence, 31 g ai/ha) was 0 and the “Plant response rating, Lambsquarters” value [8, 19] was 0. For the same compound, the “Plant response rating, Lambsquarters” value [8, 20] was 0, the “Plant response rating, Lambsquarters” value [8, 21] was 0 and the “Plant response rating (0 to 100), Blackgrass” value ([9]; Postemergence, 31 g ai/ha) was 0. The “Plant response rating, Blackgrass” value [9, 19] was 0, the “Plant response rating, Blackgrass” value [9, 20] was 0 and the “Plant response rating, Blackgrass” value [9, 21] was 0. The “Plant response rating (0 to 100), Oat, Wild” value ([10]; Postemergence, 31 g ai/ha) was 0, the “Plant response rating, Oat, Wild” value [10, 19] was 0 and the “Plant response rating, Oat, Wild” value [10, 20] was 0. The “Plant response rating, Oat, Wild” value [10, 21] was 5, the “Plant response rating, Rice” value [11, 22] was 0 and the “Plant response rating, Rice” value [11, 23] was 15. For the same compound, the “Plant response rating, Rice” value [11, 24] was 60, the “Plant response rating, Rice” value [11, 25] was 65 and the “Plant response rating (0 to 100), Cocklebur” value ([12]; Postemergence, 31 g ai/ha) was 0. For the same compound, the “Plant response rating, Cocklebur” value [12, 19] was 0, the “Plant response rating, Cocklebur” value [12, 20] was 0 and the “Plant response rating, Cocklebur” value [12, 21] was 0. The “Plant response rating, Ducksalad” value [13, 22] was 20, the “Plant response rating, Ducksalad” value [13, 23] was 45 and the “Plant response rating, Ducksalad” value [13, 24] was 80. For the same compound, the “Plant response rating, Ducksalad” value [13, 25] was 90, the “Plant response rating (0 to 100), Cupgrass, Woolly” value ([14]; Postemergence, 31 g ai/ha) was 0 and the “Plant response rating, Cupgrass, Woolly” value [14, 19] was 0. For the same compound, the “Plant response rating, Cupgrass, Woolly” value [14, 20] was 0, the “Plant response rating, Cupgrass, Woolly” value [14, 21] was 0 and the “Plant response rating (0 to 100), Bromegrass, Downy” value ([15]; Postemergence, 31 g ai/ha) was 0. For the same compound, the “Plant response rating, Bromegrass, Downy” value [15, 19] was 0, the “Plant response rating, Bromegrass, Downy” value [15, 20] was 0 and the “Plant response rating, Bromegrass, Downy” value [15, 21] was 0.
In the case of `Cn1nc(C(F)(F)F)c(CS(=O)(=O)c2cccc[n+]2[O-])c1OCC(F)F` [Compound 81], the “Plant response rating, Morningglory” value ([1]; Postemergence, 125 g ai/ha) is reported as 30, the “Morningglory plant response rating” value [1, 17] is reported as 50 and the “Morningglory plant response rating” value [1, 18] is reported as 0. For the same compound, the “Plant response rating, Morningglory” value ([1]; Preemergence, 500 g ai/ha) was 80, the “Bermudagrass plant response rating” value ([2]; 62 g ai/ha, Preemergence, scale 0 to 100 (0 no effect, 100 complete control)) was 100 and the “Bermudagrass plant response rating” value [2, 26] was 100. For the same compound, the “Plant response rating, Bermudagrass” value [2, 27] was 80, the “Bermudagrass plant response rating” value [2, 28] was 100 and the “Kochia plant response rating” value [3, 29] was 100. The “Kochia plant response rating” value [3, 26] was 100, the “Plant response rating, Kochia” value [3, 27] was 40 and the “Kochia plant response rating” value [3, 28] was 100. For the same compound, the “Plant response rating, Pigweed” value ([4]; Postemergence, 125 g ai/ha) was 40, the “Pigweed plant response rating” value [4, 17] was 70 and the “Pigweed plant response rating” value [4, 18] was 90. For the same compound, the “Plant response rating, Pigweed” value ([4]; Preemergence, 500 g ai/ha) was 100, the “Nutsedge, Yellow plant response rating” value [5, 29] was 70 and the “Nutsedge, Yellow plant response rating” value [5, 26] was 85. The “Plant response rating, Nutsedge, Yellow” value [5, 27] was 50, the “Nutsedge, Yellow plant response rating” value [5, 28] was 98 and the “Foxtail, Green plant response rating” value [6, 29] was 75. For the same compound, the “Foxtail, Green plant response rating” value [6, 26] was 100, the “Plant response rating, Foxtail, Green” value [6, 27] was 65 and the “Foxtail, Green plant response rating” value [6, 28] was 100. For the same compound, the “Soybean plant response rating” value [7, 29] was 0, the “Soybean plant response rating” value [7, 26] was 100 and the “Plant response rating, Soybean” value [7, 27] was 0. The “Soybean plant response rating” value [7, 28] was 100, the “Lambsquarters plant response rating” value [8, 29] was 100 and the “Lambsquarters plant response rating” value [8, 26] was 100. For the same compound, the “Plant response rating, Lambsquarters” value [8, 27] was 80, the “Lambsquarters plant response rating” value [8, 28] was 100 and the “Plant response rating, Blackgrass” value [9, 27] was 50. For the same compound, the “Oat, Wild plant response rating” value [10, 29] was 60, the “Oat, Wild plant response rating” value [10, 26] was 95 and the “Plant response rating, Oat, Wild” value [10, 27] was 0. For the same compound, the “Oat, Wild plant response rating” value [10, 28] was 95, the “Plant response rating, Rice” value [11, 30] was 0 and the “Plant response rating, Rice” value [11, 25] was 0. The “Cocklebur plant response rating” value [12, 29] was 0, the “Cocklebur plant response rating” value [12, 26] was 50 and the “Plant response rating, Cocklebur” value [12, 27] was 0. For the same compound, the “Cocklebur plant response rating” value [12, 28] was 60, the “Plant response rating, Ducksalad” value [13, 30] was 65 and the “Plant response rating, Ducksalad” value [13, 25] was 75. For the same compound, the “Cupgrass, Woolly plant response rating” value [14, 29] was 100, the “Cupgrass, Woolly plant response rating” value [14, 26] was 100 and the “Plant response rating, Cupgrass, Woolly” value [14, 27] was 85. For the same compound, the “Cupgrass, Woolly plant response rating” value [14, 28] was 100, the “Bromegrass, Downy plant response rating” value [15, 29] was 40 and the “Bromegrass, Downy plant response rating” value [15, 26] was 100. For the same compound, the “Plant response rating, Bromegrass, Downy” value [15, 27] was 40 and the “Bromegrass, Downy plant response rating” value [15, 28] was 100.
